Data published in ChEMBL document CHEMBL1127180, “Synthesis and mechanistic studies of a tetrazole-tethered cephalosporin-quinolone hybrid” (1993).
Converted amounts (≈) assume the structure as drawn.

Experiments:
Type in all cases: functional
Citrobacter freundii [1] = assay: Tested for in vitro antibacterial activity against Citrobacter freundii BS-16
Enterobacter cloacae [2] = assay: Tested for in vitro antibacterial activity against Enterobacter cloacae P99
Escherichia coli [3] = assay: Tested for in vitro antibacterial activity against Escherichia coli 257
Escherichia coli [4] = assay: Tested for in vitro antibacterial activity against Escherichia coli TEM-1
Klebsiella pneumoniae [5] = assay: Tested for in vitro antibacterial activity against Klebsiella pneumoniae A
Pseudomonas aeruginosa [6] = assay: Tested for in vitro antibacterial activity against Pseudomonas aeruginosa 18SH
Pseudomonas aeruginosa [7] = assay: Tested for in vitro antibacterial activity against Pseudomonas aeruginosa 5712
Proteus vulgaris [8] = assay: Tested for in vitro antibacterial activity against Proteus vulgaris ATCC 6380
Staphylococcus aureus [9] = assay: Tested for in vitro antibacterial activity against Staphylococcus aureus Smith
Staphylococcus aureus [10] = assay: Tested for in vitro antibacterial activity against Staphylococcus aureus 67
Staphylococcus aureus [11] = assay: Tested for in vitro antibacterial activity against Staphylococcus aureus 753
Streptococcus pyogenes [12] = assay: Tested for in vitro antibacterial activity against Streptococcus pyogenes 4
Streptococcus pneumoniae [13] = assay: Tested for in vitro antibacterial activity against Streptococcus pneumoniae 6301
Citrobacter freundii [14] = assay: Tested for in vitro antibacterial activity against Citrobacter freundii BS-16; inactive
Enterobacter cloacae [15] = assay: Tested for in vitro antibacterial activity against Enterobacter cloacae P99; inactive
Escherichia coli [16] = assay: Tested for in vitro antibacterial activity against Escherichia coli 257; inactive
Escherichia coli [17] = assay: Tested for in vitro antibacterial activity against Escherichia coli TEM-1; inactive
Klebsiella pneumoniae [18] = assay: Tested for in vitro antibacterial activity against Klebsiella pneumoniae A; inactive
Pseudomonas aeruginosa [19] = assay: Tested for in vitro antibacterial activity against Pseudomonas aeruginosa 18SH; inactive
Pseudomonas aeruginosa [20] = assay: Tested for in vitro antibacterial activity against Pseudomonas aeruginosa 5712; inactive
Proteus vulgaris [21] = assay: Tested for in vitro antibacterial activity against Proteus vulgaris ATCC 6380; inactive
Staphylococcus aureus [22] = assay: Tested for in vitro antibacterial activity against Staphylococcus aureus Smith; inactive
Staphylococcus aureus [23] = assay: Tested for in vitro antibacterial activity against Staphylococcus aureus 753; inactive
Streptococcus pyogenes [24] = assay: Tested for in vitro antibacterial activity against Streptococcus pyogenes 4; inactive
Streptococcus pneumoniae [25] = assay: Tested for in vitro antibacterial activity against Streptococcus pneumoniae 6301; inactive
Staphylococcus aureus [26] = assay: Tested for in vitro antibacterial activity against Staphylococcus aureus 67; inactive

Row | MIC (Citrobacter freundii [1]) [µg/mL] | MIC (Enterobacter cloacae [2]) [µg/mL] | MIC (Escherichia coli [3]) [µg/mL] | MIC (Escherichia coli [4]) [µg/mL] | MIC (Klebsiella pneumoniae [5]) [µg/mL] | MIC (Pseudomonas aeruginosa [6]) [µg/mL] | MIC (Pseudomonas aeruginosa [7]) [µg/mL] | MIC (Proteus vulgaris [8]) [µg/mL] | MIC (Staphylococcus aureus [9]) [µg/mL] | MIC (Staphylococcus aureus [10]) [µg/mL] | MIC (Staphylococcus aureus [11]) [µg/mL] | MIC (Streptococcus pyogenes [12]) [µg/mL] | MIC (Streptococcus pneumoniae [13]) [µg/mL] | Compound | further results
1 | 32 | 16 | 4 | 2 | 2 | 128 | > 128 | 4 | 4 | 64 | 128 | ≤ 0.0156 | ≤ 0.0156 | CO/N=C(/C(=O)NC1C(=O)N2C(C(=O)[O-])=C(CSc3nnnn3CC(=O)N3CCN(c4cc5c(cc4F)c(=O)c(C(=O)O)cn5C4CC4)CC3)CS[C@H]12)c1csc(N)n1.[Na+] (stereo partly drawn) | –
2 | 128 | > 128 | 0.125 | 0.125 | 0.0625 | > 128 | 16 | ≤ 0.0156 | 8 | > 128 | > 128 | 0.0313 | 0.0313 | CO/N=C(/C(=O)NC1C(=O)N2C(C(=O)[O-])=C(CSc3nnnn3CC(=O)O)CS[C@H]12)c1csc(N)n1.[Na+] (stereo partly drawn) | –

Further lines, the compound ahead of its results:

Row | Compound | MIC (Citrobacter freundii [1]) [µg/mL] | MIC (Enterobacter cloacae [2]) [µg/mL] | MIC (Escherichia coli [3]) [µg/mL] | MIC (Escherichia coli [4]) [µg/mL] | MIC (Klebsiella pneumoniae [5]) [µg/mL] | MIC (Pseudomonas aeruginosa [6]) [µg/mL] | MIC (Pseudomonas aeruginosa [7]) [µg/mL] | MIC (Proteus vulgaris [8]) [µg/mL] | MIC (Staphylococcus aureus [9]) [µg/mL] | MIC (Staphylococcus aureus [10]) [µg/mL] | MIC (Staphylococcus aureus [11]) [µg/mL] | MIC (Streptococcus pyogenes [12]) [µg/mL] | MIC (Streptococcus pneumoniae [13]) [µg/mL] | further results
3 | O=C(O)c1cn(C2CC2)c2c(F)c(N3CCNCC3)c(F)cc2c1=O | 0.0313 (≈ 0.0896 µM) | 0.0078 (≈ 0.0223 µM) | 0.0078 (≈ 0.0223 µM) | 0.0156 (≈ 0.0447 µM) | 0.25 (≈ 0.716 µM) | 0.25 (≈ 0.716 µM) | 1 (≈ 2.86 µM) | 0.0078 (≈ 0.0223 µM) | 0.125 (≈ 0.358 µM) | 0.5 (≈ 1.43 µM) | 0.25 (≈ 0.716 µM) | 0.5 (≈ 1.43 µM) | 1 (≈ 2.86 µM) | –
4 | O=C(O)c1cn(C2CC2)c2cc(N3CCN(C(=O)Cn4nnnc4S)CC3)c(F)cc2c1=O | 4 (≈ 8.45 µM) | 2 (≈ 4.22 µM) | 2 (≈ 4.22 µM) | 2 (≈ 4.22 µM) | 32 (≈ 67.6 µM) | 32 (≈ 67.6 µM) | 128 (≈ 270 µM) | 4 (≈ 8.45 µM) | 32 (≈ 67.6 µM) | 64 (≈ 135 µM) | 64 (≈ 135 µM) | 64 (≈ 135 µM) | 64 (≈ 135 µM) | –
5 | CO/N=C(/C(=O)NC1C(=O)N2C(C(=O)[O-])=C(CO)CS[C@H]12)c1csc(N)n1.[Na+] (stereo partly drawn) | > 128 | > 128 | 0.25 | 0.25 | 0.0625 | > 128 | > 128 | 0.0625 | 16 | > 128 | > 128 | ≤ 0.0157 | 0.0625 | –
6 | O=C([O-])Cn1nnnc1[S-].[Na+].[Na+] | – | – | – | – | – | – | – | – | – | – | – | – | – | MIC (Citrobacter freundii [14]): > 128 µg/mL; MIC (Enterobacter cloacae [15]): > 128 µg/mL; MIC (Escherichia coli [16]): > 128 µg/mL; MIC (Escherichia coli [17]): > 128 µg/mL; MIC (Klebsiella pneumoniae [18]): > 128 µg/mL; MIC (Pseudomonas aeruginosa [19]): > 128 µg/mL; MIC (Pseudomonas aeruginosa [20]): > 128 µg/mL; MIC (Proteus vulgaris [21]): > 128 µg/mL; MIC (Staphylococcus aureus [22]): > 128 µg/mL; MIC (Staphylococcus aureus [23]): > 128 µg/mL; MIC (Streptococcus pyogenes [24]): > 128 µg/mL; MIC (Streptococcus pneumoniae [25]): > 128 µg/mL; MIC (Staphylococcus aureus [26]): > 128 µg/mL
